Like-named read-outs stand apart in the source and are kept apart here.
Legend:
[1] = target: MAT2A recombinant protein (Homo sapiens, UniProt P31153); test: MAT2A inhibitory activity (malachite green colorimetric enzyme assay); format: biochemical
Method in brief: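 Recombinant human MAT2A with L-methionine and ATP in 50 mM HEPES pH 7.5, 50 mM KCl, 10 mM MgCl2, 10 mM DTT, 60 min at room temperature. Phosphate released detected by malachite green reagent (15 min) at 630 nm. Ten-point 1:3 series from 1000 nM final; IC50 by variable-slope non-linear regression.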

[2] = test system: SDMA in HCT116-MTAP-knockout cell line; test: Cell symmetric dimethylarginine (SDMA) test, In-cell Western, HCT116-MTAP-knockout; format: cell-based; conditions: Homo sapiens, 96 h
[3] = test system: SDMA in human colon cancer cell line HCT116; test: Cell symmetric dimethylarginine (SDMA) test, In-cell Western, HCT116 (MTAP wild-type); format: cell-based; conditions: Homo sapiens, HCT-116, 96 h
Excerpt: MAT2A catalyzes the reaction of L-methionine and ATP to generate SAM, inorganic phosphonic acid, and inorganic diphosphonic acid. SAM is an important methyl donor, and is a substrate of arginine methyltransferase 5 (PRMT5). PRMT5 catalyzes SDMA modification of multiple proteins within a cell. The intracellular SDMA modification level was detected by ICW (In-cell Western), and the inhibition of the test compound on the enzymatic activity of intracellular MAT2A was indirectly reflected.
In the present application, the human colon cancer cell line HCT116 and the corresponding HCT116-MTAP-knockout cell line were seeded into a 96-well cell culture plate at an appropriate cell density. After 24 h, the cells were treated using the test compounds diluted 1:4 fold at the highest concentration of 6 μM for 6 gradients, and a DMSO treatment group was set up separately. The cells were cultured in a 37° C./5% CO2 incubator for 4 days. To test the inhibitory activity of the test compounds against tumor cell SDMA, the medium was discarded, and the plate was washed 3 times with PBST. 4% paraformaldehyde was then used at room temperature for fixation for 20 min. The fixation solution was discarded, the plate was washed 3 times with PBST, and a special blocking solution was added to each well for blocking at room temperature for 2 h. The blocking solution was discarded. After the plate was washed 3 times with PBST, the plate was incubated with SDMA antibody at 4° C. overnight. The next day, the plate was washed 3 times with PBST. The secondary antibody and DRAQ5 were diluted to an appropriate concentration with the blocking solution, and incubated at room temperature for 2 h; the plate was washed 3 times with PBST, and the fluorescence signals at 700 nm and 800 nm were detected using a Li—COR Odyssey two-color near-infrared laser imager.
The data was then processed. After the corresponding background value was subtracted from each well, statistical analysis was performed on the 800 nm/700 nm ratio for each well, a sigmoidal dose-inhibition curve was plotted using a non-linear regression model, and IC50 values were fitted and calculated. Inhibition Rate (%)=(1−SDMA dose/SDMA DMSO control)*100. SDMA dose is the value of the drug treatment group, and SDMA DMSO control is the value of the DMSO control group.

[4] = test system: HCT116-MTAP-knockout (−/−) cell strain; test: Tumor cell proliferation inhibition assay (CellTiter-Glo), HCT116-MTAP-knockout (-/-); format: cell-based; conditions: Homo sapiens, 120 h, HCT116-MTAP-knockout (−/−) cells, 5-day treatment
Protocol: (§1) After the HCT116-MTAP-knockout (−/−) cell strain, the HCT116-MTAP wild-type(+/+)-cell strain, the DOHH-2 cell strain, or the Hut-78 cell strain was treated with the test compound for 5 days, the ATP level was measured using a CellTiter-Glo kit of Promega to evaluate the inhibition of the test compound against the growth of the tumor cell strain.
(§2) In the present application, the HCT116-MTAP-knockout (−/−) cell strain, the HCT116-MTAP wild-type (+/+)-cell strain, the DOHH-2 cell strain, or the Hut-78 cell strain was seeded into a 96-well cell culture plate at an appropriate cell density. After 24 h, the cells were treated using the test compounds diluted 1:3 fold at the highest concentration of 10 μM for 10 gradients, and a DMSO treatment group was set up separately. The cells were cultured in a 37° C./5% CO2 incubator for 5 days.

[5] = test system: HCT116-MTAP wild-type (+/+)-cell strain; test: Tumor cell proliferation inhibition assay (CellTiter-Glo), HCT116-MTAP wild-type (+/+); format: cell-based; conditions: Homo sapiens, 120 h, HCT116-MTAP wild-type (+/+) cells, 5-day treatment
Protocol: as §1, §2

[6] = Pharmacokinetic test in mice (IV and PO); format: in vivo; conditions: BALB/c mice; for AUC (in words) / half-life (T½) (in words): summary of Table 7; for AUC / clearance / bioavailability / half-life / Vd: mouse, plasma; for half-life: read-out: T½ (converted); for Vd: read-out: Vz
[7] = test system: Hut-78 cell strain; test: Tumor cell proliferation inhibition assay (CellTiter-Glo), Hut-78; format: cell-based; conditions: Hut-78 cells, 5-day treatment
Protocol: as §1, §2

[8] = IC50 score class, read-out: MAT2A Inhibition (score)
[9] = IC50 score class, read-out: Cell 96 h SDMA Inhibition (HCT116-MTAP−/−) (score)
[10] = read-out: Cell 96 h SDMA Inhibition (HCT116-MTAP−/−)
[11] = IC50 score class, read-out: Cell 96 h SDMA Inhibition (HCT116-MTAP+/+) (score)
[12] = read-out: Cell 96 h SDMA inhibition (HCT116-MTAP+/+)
[13] = IC50 score, read-out: Tumor cell 5-day relative growth inhibition (HCT116-MTAP−/−) (nM), score
[14] = IC50 value, read-out: Tumor cell 5-day relative growth inhibition (HCT116-MTAP−/−)
[15] = IC50 score, read-out: Tumor cell 5-day relative growth inhibition (HCT116-MTAP+/+) (nM), score
[16] = IC50 value, read-out: Tumor cell 5-day relative growth inhibition (HCT116-MTAP+/+)
[17] = Homo sapiens, HuT78, 120 h, IC50 score, read-out: Tumor cell 5-day relative growth inhibition (Hut-78) (nM), score
[18] = Homo sapiens, HuT78, 120 h, IC50 value, read-out: Tumor cell 5-day relative growth inhibition (Hut-78)

MAT2A recombinant protein, sequence (P31153 whole entry): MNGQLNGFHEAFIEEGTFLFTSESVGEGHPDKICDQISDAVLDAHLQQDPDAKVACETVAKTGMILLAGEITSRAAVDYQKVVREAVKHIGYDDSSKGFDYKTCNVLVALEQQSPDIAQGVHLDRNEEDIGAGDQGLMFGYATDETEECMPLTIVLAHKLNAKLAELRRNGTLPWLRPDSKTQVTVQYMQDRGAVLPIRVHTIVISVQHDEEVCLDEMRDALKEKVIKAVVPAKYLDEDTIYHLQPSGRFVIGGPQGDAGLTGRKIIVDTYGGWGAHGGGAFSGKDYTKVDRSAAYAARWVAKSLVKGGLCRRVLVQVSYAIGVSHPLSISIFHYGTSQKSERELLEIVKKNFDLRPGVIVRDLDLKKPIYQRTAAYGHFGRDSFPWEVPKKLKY

| SMILES | IC50 [1, 8] [nM] | IC50 ([1]; read-out: MAT2A Inhibition) [nM] | IC50 [2, 9] [nM] | IC50 [2, 10] [nM] | IC50 [3, 11] [nM] | IC50 [3, 12] [nM] | IC50 [4, 13] [nM] | IC50 [4, 14] [nM] | IC50 [5, 15] [nM] | IC50 [5, 16] [nM] | AUC ([6]; IV 2 mg/kg) [µM·h] | clearance ([6]; IV 2 mg/kg) [mL/min/kg] | bioavailability ([6]; IV 2 mg/kg, PO 10 mg/kg) [%] | half-life ([6]; IV 2 mg/kg) [h] | Vd ([6]; IV 2 mg/kg) [L/kg] | AUC ([6]; PO 10 mg/kg) [µM·h] | half-life ([6]; PO 10 mg/kg) [h] | also measured |
| --- | --- | --- | --- | --- | --- | --- | --- | --- | --- | --- | --- | --- | --- | --- | --- | --- | --- | --- |
| [2H]C([2H])([2H])n1cc2c(n1)c(=O)n(-c1cccc3[nH]ncc13)c1nc(C(F)(F)F)ccc21 [Compound B256] | < 100 | 16.9 | < 200 | 28 | – | – | < 500 | 29.5 | 500 to 2000 | 577 | 37.8 | 2.28 | 175 | 5.28 | 1 | 331 | 8.61 | AUC (in words) [6]: relatively high; half-life (T½) (in words) [6]: relatively long |
| Cn1cc2c(n1)c(=O)n(-c1cccnc1C1CC1)c1nc(C(F)(F)F)ccc21 [Compound B183] | – | – | < 200 | 47.9 | < 200 | 130 | – | – | – | – | – | – | – | – | – | – | – | IC50 [7, 17]: < 500 nM; IC50 [7, 18]: 108 nM |
| Cc1ncccc1-n1c(=O)c2nn(C)cc2c2ccc(C(F)(F)F)nc21 [Compound B179] | – | – | – | – | – | – | – | – | – | – | – | – | – | – | – | – | – | IC50 ([7]; IC50 score, read-out: Tumor cell 5-day relative growth inhibition (Hut-78) (nM), score): ≥ 2000 nM; IC50 ([7]; IC50 value, read-out: Tumor cell 5-day relative growth inhibition (Hut-78)): 7990 nM |
| Cn1cnc2c(=O)n(-c3cccnc3C3CC3)c3cc(Cl)c(F)cc3c21 [Compound B336] | < 100 | 12 | < 200 | 18.7 | > 3000 | > 10000 | < 500 | 145 | ≥ 2000 | 9700 | – | – | – | – | – | – | – | – |
| Cn1cc2c(n1)c(=O)n(-c1cccnc1C1CC1)c1nc(C3CC3)c(F)cc21 [Compound B359] | < 100 | 9.6 | < 200 | 6.2 | > 3000 | > 10000 | < 500 | 87 | ≥ 2000 | > 10000 | – | – | – | – | – | – | – | – |
| Cn1cnc2c(=O)n(-c3cccnc3C(F)(F)F)c3cc(Cl)c(F)cc3c21 [Compound B351] | < 100 | 26 | < 200 | 10 | > 3000 | > 10000 | 500 to 2000 | 765 | ≥ 2000 | > 10000 | – | – | – | – | – | – | – | – |

Now from value to compound, other results behind:

| IC50 [1, 8] [nM] | IC50 ([1]; read-out: MAT2A Inhibition) [nM] | IC50 [2, 9] [nM] | IC50 [2, 10] [nM] | IC50 [3, 11] [nM] | IC50 [3, 12] [nM] | IC50 [4, 13] [nM] | IC50 [4, 14] [nM] | IC50 [5, 15] [nM] | IC50 [5, 16] [nM] | AUC ([6]; IV 2 mg/kg) [µM·h] | clearance ([6]; IV 2 mg/kg) [mL/min/kg] | bioavailability ([6]; IV 2 mg/kg, PO 10 mg/kg) [%] | half-life ([6]; IV 2 mg/kg) [h] | Vd ([6]; IV 2 mg/kg) [L/kg] | AUC ([6]; PO 10 mg/kg) [µM·h] | half-life ([6]; PO 10 mg/kg) [h] | SMILES | also measured |
| --- | --- | --- | --- | --- | --- | --- | --- | --- | --- | --- | --- | --- | --- | --- | --- | --- | --- | --- |
| < 100 | 11 | < 200 | 110 | > 3000 | 7200 | < 500 | 242 | 500 to 2000 | 1100 | 200 | 0.3 | 80 | 10.8 | 0.3 | 807 | 18 | O=c1c2nn(C(F)F)cc2c2ccc(C(F)(F)F)nc2n1-c1cccc2[nH]ncc12 [Compound B245] | AUC (in words) [6]: relatively high; half-life (T½) (in words) [6]: relatively long |
| < 100 | 15 | < 200 | 12 | > 3000 | > 10000 | < 500 | 128 | ≥ 2000 | > 10000 | 31.5 | 2.42 | 65 | 6.4 | 1.34 | 93.4 | 8 | O=c1c2nn(C(F)F)cc2c2cc(F)c(C3CC3)nc2n1-c1cccnc1C1CC1 [Compound B361] | – |
| < 100 | 23.7 | < 200 | 67 | – | – | < 500 | 382 | 500 to 2000 | 1630 | 245 | 0.317 | 126 | 5.73 | 0.2 | 1470 | 5.79 | Cc1c2c(nn1C(F)F)c(=O)n(-c1cccc3[nH]ncc13)c1nc(C(F)(F)F)ccc21 [Compound B254] | AUC (in words) [6]: relatively high; half-life (T½) (in words) [6]: relatively long |
| < 100 | 53.7 | – | – | – | – | – | – | – | – | – | – | – | – | – | – | – | Cn1cc2c(n1)c(=O)n(Cc1ccn[nH]1)c1nc(C(F)(F)F)ccc21 [Compound B123] | IC50 [7, 17]: ≥ 2000 nM; IC50 [7, 18]: > 2000 nM |
| – | – | < 200 | 106 | 200 to 1000 | 495 | – | – | – | – | – | – | – | – | – | – | – | Cn1cc2c(n1)c(=O)n(-c1cccnc1C#N)c1nc(C(F)(F)F)ccc21 [Compound B207] | IC50 [7, 17]: < 500 nM; IC50 [7, 18]: 179 nM |

— US20240391923A1, “METHIONINE ADENOSYLTRANSFERASE 2A INHIBITOR FOR TREATING MTAP DELETION-TYPE CANCER” (SUZHOU GENHOUSE BIO CO., LTD., priority 2022, published 2024)
